Source: the NIST ThermoML archive (doi:10.1021/je200963q)
Numbers after ± are expanded uncertainties.

Assay: wn = mass fraction of the nth substance listed
Conditions: 303.15 K, 101.3 kPa, Liquid, w1 = 0.08

CCCCOCCOCCO [3,6-dioxa-1-decanol] + O
viscosity (Capillary tube (Ostwald / Ubbelohde) method): 1.069 ± 0.009 mPa·s
mass density: 996.7 ± 0.4 kg/m3
